These results are taken from US10829473B2, “Modulators of the cystic fibrosis transmembrane conductance regulator protein and methods of use” (AbbVie Overseas S.Á.R.L., priority 2017, dated 2020).

Molecules are shown by their SMILES. pEC50: −log10 of the molar value. Where two headings read alike, the source gives them in different places. Marks after values point to notes of the source that are not given here.

The target in the test is T1, F508delCFTR (Homo sapiens, UniProt P13569, DEL508-508).
T1 construct: expressed in transfected cells; host or cells: CFBE41o- human lung derived epithelial cells (CFBE41o-F508delCFTR-HRP), doxycycline-inducible
Briefly: Cell Surface Expression-Horse Radish Peroxidase (CSE-HRP) Assay.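 For EC50 (with co-corrector): co-corrector chromenyl benzoic acid corrector at 2 or 3 µM.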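 For Maximum % activity (without co-corrector): % of on-plate positive control chromenyl benzoic acid corrector at 2 or 3 µM.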 The note with it: for Maximum % activity (with co-corrector) / Emax: maximum at any tested concentration; for Emax: read-out: Maximum % activity (without co-corrector). Format: cell-based. In outline:
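Corrector compounds were given as 8-point 3-fold series from 20 or 30 μM, with or without a 2 μM co-corrector, for 18-24 h at 33 °C. Surface HRP was read by luminol luminescence as % of positive control; variable-Hill-slope sigmoidal fitting gave EC50 from triplicate plates.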

Setting [1] is: test compound with co-corrector.
The mark [2] stands for this setting: test compound with co-corrector, read-out: EC50 (with co-corrector).
Setting [3] is: test compound without co-corrector.
The mark [4] stands for this setting: test compound without co-corrector, read-out: EC50 (without co-corrector).

T1 sequence (P13569 with tags, fused parts or gaps DEL508-508): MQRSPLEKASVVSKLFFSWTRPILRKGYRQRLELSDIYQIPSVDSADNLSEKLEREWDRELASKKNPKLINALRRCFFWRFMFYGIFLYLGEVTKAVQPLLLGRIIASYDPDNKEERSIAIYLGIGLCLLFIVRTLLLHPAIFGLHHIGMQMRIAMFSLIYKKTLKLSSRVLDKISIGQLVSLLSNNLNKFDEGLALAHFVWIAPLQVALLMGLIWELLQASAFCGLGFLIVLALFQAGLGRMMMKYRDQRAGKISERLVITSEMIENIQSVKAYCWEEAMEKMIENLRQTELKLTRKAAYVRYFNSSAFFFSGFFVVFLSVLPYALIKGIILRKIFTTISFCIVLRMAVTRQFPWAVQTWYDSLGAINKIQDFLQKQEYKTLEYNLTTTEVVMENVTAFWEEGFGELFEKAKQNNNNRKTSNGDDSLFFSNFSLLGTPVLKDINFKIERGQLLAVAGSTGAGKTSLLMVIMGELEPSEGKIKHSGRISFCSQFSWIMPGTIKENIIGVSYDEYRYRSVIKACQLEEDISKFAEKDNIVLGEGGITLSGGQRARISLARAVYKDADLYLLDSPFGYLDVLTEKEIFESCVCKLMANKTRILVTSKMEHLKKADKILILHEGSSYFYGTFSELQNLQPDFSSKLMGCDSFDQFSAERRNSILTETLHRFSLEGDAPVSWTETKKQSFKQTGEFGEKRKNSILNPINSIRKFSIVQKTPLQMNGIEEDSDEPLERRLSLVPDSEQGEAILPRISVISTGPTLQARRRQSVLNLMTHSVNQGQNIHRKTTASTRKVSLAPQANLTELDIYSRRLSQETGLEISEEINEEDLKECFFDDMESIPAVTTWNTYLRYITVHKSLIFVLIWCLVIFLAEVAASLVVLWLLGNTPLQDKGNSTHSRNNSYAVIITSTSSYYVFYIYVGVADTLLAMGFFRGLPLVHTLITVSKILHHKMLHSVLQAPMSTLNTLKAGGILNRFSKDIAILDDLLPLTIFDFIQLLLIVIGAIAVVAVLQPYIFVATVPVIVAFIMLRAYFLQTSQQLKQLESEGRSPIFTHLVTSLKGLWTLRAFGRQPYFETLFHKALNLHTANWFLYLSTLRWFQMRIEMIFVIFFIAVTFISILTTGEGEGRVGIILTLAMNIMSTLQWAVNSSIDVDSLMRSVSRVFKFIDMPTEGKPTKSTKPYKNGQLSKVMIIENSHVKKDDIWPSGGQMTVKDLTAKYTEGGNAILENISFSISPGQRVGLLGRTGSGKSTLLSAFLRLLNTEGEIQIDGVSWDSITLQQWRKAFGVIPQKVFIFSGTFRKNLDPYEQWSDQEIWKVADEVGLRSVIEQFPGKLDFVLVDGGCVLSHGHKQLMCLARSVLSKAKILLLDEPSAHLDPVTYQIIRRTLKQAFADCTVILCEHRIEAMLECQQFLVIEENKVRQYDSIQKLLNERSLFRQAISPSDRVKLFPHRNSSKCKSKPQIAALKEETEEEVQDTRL

What is called pEC50 is the EC50 on a negative log10 scale, so that one unit is a factor of ten. For `O=C(NS(=O)(=O)c1cccc2ccccc12)C1(c2cc(Cl)cnc2C(F)(F)F)CC1` [GII-5, 1-[5-chloro-2-(trifluoromethyl)pyridin-3-yl]-N-(naphthalene-1-sulfonyl)cyclopropane-1-carboxamide], the “Maximum % activity (with co-corrector)” value under setting [1] was “++ (≥150 and <350)”. Also, the pEC50 runs as follows: under setting [2], 5.00 to 5.52; under setting [4], 5.00 to 5.52. For the same compound, under setting [3], the Emax lay within 50 to 150%.

Regarding `COc1cc(C2(C(=O)NS(=O)(=O)c3cccc4ncccc34)CC2)c(Cl)cn1` [GII-6, 1-(5-chloro-2-methoxypyridin-4-yl)-N-(quinoline-5-sulfonyl)cyclopropane-1-carboxamide], under setting [1], the “Maximum % activity (with co-corrector)” value was “++ (≥150 and <350)”. Moreover, the pEC50 by setting is: under setting [2], 5.00 to 5.52; under setting [4], 5.00 to 5.52. The Emax under setting [3] is 50 to 150%.

With `COc1cc(C2(C(=O)NS(=O)(=O)c3cccc4c3CCCN4)CC2)c(Cl)cn1` [GII-7, 1-(5-chloro-2-methoxypyridin-4-yl)-N-(1,2,3,4-tetrahydroquinoline-5-sulfonyl)cyclopropane-1-carboxamide], under setting [1], the “Maximum % activity (with co-corrector)” value is on record as “+++ (≥350)”. The pEC50 reads like this: under setting [2], 5.00 to 5.52; under setting [4], 5.00 to 5.52. Besides, under setting [3], the Emax fell in the range of 50 to 150%.

As for `Cc1cnc(N2CCOCC2)cc1C1(C(=O)NS(=O)(=O)c2cccc3ncccc23)CC1` [GII-8, 1-[5-methyl-2-(morpholin-4-yl)pyridin-4-yl]-N-(quinoline-5-sulfonyl)cyclopropane-1-carboxamide], under setting [1], the “EC50 (with co-corrector)” value is “++^a”; the “Maximum % activity (with co-corrector)” value is “++ (≥150 and <350)”. Also, the Emax under setting [3] is less than 50%. Moreover, the pEC50 under setting [4] is less than 5.00.

Consider `Cc1cnc(N2CCCC2)cc1C1(C(=O)NS(=O)(=O)c2cccc3ncccc23)CC1` [GII-9, 1-[5-methyl-2-(pyrrolidin-1-yl)pyridin-4-yl]-N-(quinoline-5-sulfonyl)cyclopropane-1-carboxamide], for which the “Maximum % activity (with co-corrector)” value under setting [1] is “++ (≥150 and <350)”. For the same compound, the pEC50 is 5.00 to 5.52 under setting [2] and 5.00 to 5.52 under setting [4]. Also, the Emax under setting [3] was in the range of 50 to 150%.

Regarding `COc1nc(C(F)(F)F)ccc1C1(C(=O)NS(=O)(=O)c2cccc3ncccc23)CC1` [GII-10, 1-[2-methoxy-6-(trifluoromethyl)pyridin-3-yl]-N-(quinoline-5-sulfonyl)cyclopropane-1-carboxamide], under setting [1], the “Maximum % activity (with co-corrector)” value is on record as “+++ (≥350)”. For the same compound, the pEC50 was 5.00 to 5.52 under setting [2] and 5.00 to 5.52 under setting [4]. Also, under setting [3], the Emax is greater than 150%.

As for `Cc1cnc(N(C)C)cc1C1(C(=O)NS(=O)(=O)c2cccc3ncccc23)CC1` [GII-11, 1-[2-(dimethylamino)-5-methylpyridin-4-yl]-N-(quinoline-5-sulfonyl)cyclopropane-1-carboxamide], the “Maximum % activity (with co-corrector)” value under setting [1] was “+++ (≥350)”. In addition, the pEC50 under setting [2] was 5.00 to 5.52. For the same compound, under setting [3], the “EC50 (without co-corrector)” value is “++^a” and the Emax was in the range of 50 to 150%.

Turning to `COc1nc(C(F)(F)F)ccc1C1(C(=O)NS(=O)(=O)c2cccc3c2CCCN3)CC1` [GII-12, 1-[2-methoxy-6-(trifluoromethyl)pyridin-3-yl]-N-(1,2,3,4-tetrahydroquinoline-5-sulfonyl)cyclopropane-1-carboxamide], the “Maximum % activity (with co-corrector)” value under setting [1] was “+++ (≥350)”. Further, the pEC50 by setting is: under setting [2], 5.00 to 5.52; under setting [4], 5.00 to 5.52. Further, the Emax under setting [3] is 50 to 150%.

As to `COc1cc(C2(C(=O)NS(=O)(=O)c3cccc4ncccc34)CC2)c(C)cn1` [GII-13, 1-(2-methoxy-5-methylpyridin-4-yl)-N-(quinoline-5-sulfonyl)cyclopropane-1-carboxamide], the “Maximum % activity (with co-corrector)” value under setting [1] is “+++ (≥350)”. Also, the pEC50 by setting is: under setting [2], 5.00 to 5.52; under setting [4], 5.00 to 5.52. The Emax under setting [3] was in the range of 50 to 150%.

With `O=C(NS(=O)(=O)c1cccc2ncccc12)C1(c2ccc(C(F)(F)F)nc2C2CCC2)CC1` [GII-14, 1-[2-cyclobutyl-6-(trifluoromethyl)pyridin-3-yl]-N-(quinoline-5-sulfonyl)cyclopropane-1-carboxamide], the “Maximum % activity (with co-corrector)” value under setting [1] is “+++ (≥350)”. Further, the pEC50 was 5.00 to 5.52 under setting [2] and 5.00 to 5.52 under setting [4]. Besides, the Emax under setting [3] is greater than 150%.

`COc1cnc(C2CC2)c(C2(C(=O)NS(=O)(=O)c3cccc4ncccc34)CC2)c1` [GII-15, 1-(2-cyclopropyl-5-methoxypyridin-3-yl)-N-(quinoline-5-sulfonyl)cyclopropane-1-carboxamide]: the “Maximum % activity (with co-corrector)” value under setting [1] is “+++ (≥350)”. The pEC50 under setting [2] was 5.00 to 5.52 and the pEC50 under setting [4] is 5.00 to 5.52. The Emax under setting [3] was greater than 150%.

As for `CCc1ncc(OC(C)C)cc1C1(C(=O)NS(=O)(=O)c2cccc3ncccc23)CC1` [GII-16, 1-{2-ethyl-5-[(propan-2-yl)oxy]pyridin-3-yl}-N-(quinoline-5-sulfonyl)cyclopropane-1-carboxamide], the “Maximum % activity (with co-corrector)” value under setting [1] is “++ (≥150 and <350)”. In addition, the pEC50 under setting [2] was 5.00 to 5.52. For the same compound, under setting [3], the “EC50 (without co-corrector)” value is “++^a” and the Emax is 50 to 150%.

As for `CCc1ncc(OC)cc1C1(C(=O)NS(=O)(=O)c2cccc3ncccc23)CC1` [GII-17, 1-(2-ethyl-5-methoxypyridin-3-yl)-N-(quinoline-5-sulfonyl)cyclopropane-1-carboxamide], the “Maximum % activity (with co-corrector)” value under setting [1] was “++ (≥150 and <350)”. Moreover, the pEC50 was 5.00 to 5.52 under setting [2] and 5.00 to 5.52 under setting [4]. Moreover, the Emax under setting [3] is less than 50%.

As to `COc1nc(N(C)C)ccc1C1(C(=O)NS(=O)(=O)c2cccc3ncccc23)CC1` [GII-18, 1-[6-(dimethylamino)-2-methoxypyridin-3-yl]-N-(quinoline-5-sulfonyl)cyclopropane-1-carboxamide], the “Maximum % activity (with co-corrector)” value under setting [1] is “+++ (≥350)”. For the same compound, the pEC50 by setting is: under setting [2], 5.00 to 5.52; under setting [4], 5.00 to 5.52. Besides, the Emax under setting [3] is greater than 150%.

`COc1ccc(C2(C(=O)NS(=O)(=O)c3cccc4ccccc34)CC2)c(C)n1` [GII-19, 1-(6-methoxy-2-methylpyridin-3-yl)-N-(naphthalene-1-sulfonyl)cyclopropane-1-carboxamide]: the “Maximum % activity (with co-corrector)” value under setting [1] was “+++ (≥350)”. Also, the pEC50 under setting [2] was 5.00 to 5.52. Besides, under setting [3], the “EC50 (without co-corrector)” value is “++^a” and the Emax was in the range of 50 to 150%.

For the compound `CCc1ccncc1C1(C(=O)NS(=O)(=O)c2cccc3ccccc23)CC1` [GII-20, 1-(4-ethylpyridin-3-yl)-N-(naphthalene-1-sulfonyl)cyclopropane-1-carboxamide], under setting [1], the “EC50 (with co-corrector)” value is “++^a”; the “Maximum % activity (with co-corrector)” value is “++ (≥150 and <350)”. Under setting [3], the “EC50 (without co-corrector)” value is recorded as “++^a” and the Emax lay within 50 to 150%.

For `CCc1ccncc1C1(C(=O)NS(=O)(=O)c2cccc3c2CCCN3)CC1` [GII-21, 1-(4-ethylpyridin-3-yl)-N-(1,2,3,4-tetrahydroquinoline-5-sulfonyl)cyclopropane-1-carboxamide], the “Maximum % activity (with co-corrector)” value under setting [1] is “++ (≥150 and <350)”. The pEC50 is 5.00 to 5.52 under setting [2] and less than 5.00 under setting [4]. Under setting [3], the Emax is less than 50%.

Consider `COc1cc(C)c(C2(C(=O)NS(=O)(=O)c3cccc4ccccc34)CC2)cn1` [GII-22, 1-(6-methoxy-4-methylpyridin-3-yl)-N-(naphthalene-1-sulfonyl)cyclopropane-1-carboxamide], for which, under setting [1], the “Maximum % activity (with co-corrector)” value was “+++ (≥350)”. Also, the pEC50 under setting [2] was 5.00 to 5.52 and the pEC50 under setting [4] was 5.00 to 5.52. The Emax under setting [3] is greater than 150%.

For `COc1cc(C)c(C2(C(=O)NS(=O)(=O)c3cccc4ncccc34)CC2)cn1` [GII-23, 1-(6-methoxy-4-methylpyridin-3-yl)-N-(quinoline-5-sulfonyl)cyclopropane-1-carboxamide], under setting [1], the “EC50 (with co-corrector)” value is “++^a”; the “Maximum % activity (with co-corrector)” value was “++ (≥150 and <350)”. Also, under setting [3], the “EC50 (without co-corrector)” value is on record as “++^a” and the Emax was in the range of 50 to 150%.

`COc1cc(OC(C)C)c(C2(C(=O)NS(=O)(=O)c3cccc4c3CCCN4)CC2)cn1` [GII-24, 1-{6-methoxy-4-[(propan-2-yl)oxy]pyridin-3-yl}-N-(1,2,3,4-tetrahydroquinoline-5-sulfonyl)cyclopropane-1-carboxamide]: the “Maximum % activity (with co-corrector)” value under setting [1] was “++ (≥150 and <350)”. For the same compound, under setting [2], the pEC50 was 5.00 to 5.52. Under setting [3], the “EC50 (without co-corrector)” value is given as “++^a” and the Emax was in the range of 50 to 150%.

As to `CC(C)Oc1ncc(C2CCC2)cc1C1(C(=O)NS(=O)(=O)c2cccc3c2CCCN3)CC1` [GII-25, 1-{5-cyclobutyl-2-[(propan-2-yl)oxy]pyridin-3-yl}-N-(1,2,3,4-tetrahydroquinoline-5-sulfonyl)cyclopropane-1-carboxamide], the “Maximum % activity (with co-corrector)” value under setting [1] is “+++ (≥350)”. Besides, the pEC50 under setting [2] is 5.00 to 5.52 and the negative-log EC50 (pEC50) under setting [4] was 5.00 to 5.52. In addition, under setting [3], the Emax was greater than 150%.

For `CC(C)Oc1cnc(C2CCC2)cc1C1(C(=O)NS(=O)(=O)c2cccc3c2CCCN3)CC1` [GII-26, 1-{2-cyclobutyl-5-[(propan-2-yl)oxy]pyridin-4-yl}-N-(1,2,3,4-tetrahydroquinoline-5-sulfonyl)cyclopropane-1-carboxamide], under setting [1], the “Maximum % activity (with co-corrector)” value is recorded as “+++ (≥350)”. In addition, the pEC50 was 5.00 to 5.52 under setting [2] and 5.00 to 5.52 under setting [4]. The Emax under setting [3] was greater than 150%.

In the case of `CC(C)Oc1cc(C2CCC2)cnc1C1(C(=O)NS(=O)(=O)c2cccc3ncccc23)CC1` [GII-27, 1-{5-cyclobutyl-3-[(propan-2-yl)oxy]pyridin-2-yl}-N-(quinoline-5-sulfonyl)cyclopropane-1-carboxamide], the “Maximum % activity (with co-corrector)” value under setting [1] is “++ (≥150 and <350)”. For the same compound, the pEC50 was 5.00 to 5.52 under setting [2] and 5.00 to 5.52 under setting [4]. The Emax under setting [3] fell in the range of 50 to 150%.
